Assay results taken from patent publication US9394544B2, “Ameliorating oxidative stress in neurodegenerative disease via Nox1 targeting” (University of Central Florida Research Foundation, Inc., priority 2013, dated 2016).

Tested on: α-synuclein
Experiment: α-Synuclein aggregation (immunocytochemistry, PK resistance, A11) in N27 cells exposed to PQ
Assay type: cell-based, rat
Details: for increase in aggregated α-synuclein-positive cells vs control: 24 h
Protocol: The same Nox1 shRNA used for AAV2 construct was cloned into a pLVX-shRNA2 vector containing zsGreen1 (Clontech). To make lentiviral particles, ViraPower Lentiviral Expression System (Invitrogen) was used. […]. For 6-well plates, 8 μg of each plasmid was mixed in a 1:1:1:1 ratio in 100 μl of Xfect polymer buffer and then added to the cells. After 48 h, the viral-containing medium was harvested and centrifuged briefly at 500×g for 10 min to remove cellular debris and supernatant recovered and kept at −80° C. until used.
After each respective treatment, cells were fixed in 4% paraformaldehyde (PFA) for 20 min and permeabilized with 0.1% Triton X-100 in PBS for 10 min. Blocking was performed by incubation with 20% goat or donkey serum in PBS containing 0.1% Tween 20 for 90 min at room temperature. The cells were then incubated for 120 min at room temperature with the following primary antibodies, according to the aim of the experiment: goat anti-Nox1 (1:50), rabbit anti-TH (1:10,000), mouse anti-Flag (1:150), mouse anti-α-synuclein (1:150), and rabbit anti-A11 (2.5 μg/ml). After washing, cells were incubated for 120 min with the appropriate secondary antibodies conjugated to Alexa Fluor 647 or Alexa Fluor 488 (1:1000). For nuclear visualization coverslips were incubated with 2 μM Hoechst for 10 min. For quantification of Flag^+ and α-synuclein^+ cells, >30 different fields per coverslip were analyzed on a Nikon inverted fluorescent microscope under a 20× and 40× magnification.
Immunocytochemistry for proteinase K (PK)-resistant α-synuclein was performed based on a methodology reported previously (Neumann et al., 2002), with some modifications. Briefly, fixed cells were permeabilized with 0.1% Tween 20 and then digested for 30 min at 37° C. with PK (10 μg/ml). PK was inactivated with 3 M guanidine thiocyanate in 10 mM Tris-HCl solution for 10 min. Between each step, cells were washed gently three times with PBS. Cells were then incubated for 60 min with blocking solution containing 10% donkey serum followed by an overnight incubation with mouse anti-α-synuclein antibody (1:150). The day after, cells were incubated with secondary antibodies conjugated to Alexa Fluor 647 donkey anti-mouse for 60 min and with 2 μM Hoechst solution for 10 min. For PK-resistant α-synuclein evaluation in rat SN, 40 μm sections from 4% PFA fixed tissues were washed twice in distillated water with 0.1% Tween 20, and then incubated for 30 min in TBST. The tissues were incubated for 90 min at 55° C. with 50 μg/ml PK in TBST and further washed three times in TBS. PK was denatured by incubating the tissues in a 3 M guanidine thiocyanate in 10 mM Tris-HCl solution for 10 min. […]

With `C[n+]1ccc(-c2cc[n+](C)cc2)cc1` [PQ, paraquat] the “A11 immunoreactivity vs controls” value was “high A11 immunoreactivity”, the “PK-resistant α-synuclein immunoreactivity” value was “higher PK-resistant α-synuclein immunoreactivity” and the “increase in aggregated α-synuclein-positive cells vs control” value (800 μM) was 62%. The “increase in aggregated α-synuclein-positive cells vs control” value (1000 μM) was 64%.
